Experimental data taken from US20220031800A1, “PEPTIDES FOR TREATING NON-EXUDATIVE MACULAR DEGENERATION AND OTHER DISORDERS OF THE EYE” (Allegro Pharmaceuticals, LLC, priority 2019, published 2022).

What was measured:
[1] = test system: neovascularization in mice (CNV); conditions: reproduced from US 2019/0062371; cited from earlier work
[2] = Trypan blue viability of human RPE cells (ARPE-19) exposed to hydrogen peroxide; format: cell-based; conditions: human, ARPE-19 cells (human RPE cells); 100 μM H2O2 alone, 8 hours; read-out: Reduction of cell viability
Procedure: Purpose: Investigate cytoprotective properties of risuteganib in human RPE cells (ARPE-19) exposed to hydrogen peroxide, which is a reactive oxygen species that can induce cell death at elevated levels. Methods: ARPE-19 cells were cultured in laminin-coated trans-wells for 2 weeks to induce differentiation. Cells were then exposed to the experimental conditions: […]

primary human RPE cells [3] = test: WST-1 cell viability of primary human RPE cells exposed to hydroquinone; format: cell-based; conditions: HQ 125-180 uM, 4 hours or 5 hours
Procedure: (§1) Purpose: To determine if risuteganib protects against hydroquinone (HQ)-mediated cell injury, elevated ROS level and reduced mitochondrial membrane potential (Δψm) in cultured human RPE cells. Elevated ROS levels increase oxidative stress in the cells, leading to reduced cell health and cell death. Loss of ΔΨm is a marker for early cell death. Methods: Primary human RPE cells were seeded on collagen-coated 96-well plates in triplicates at 8K, 10K and […] cells/well, respectively. Cells reached 80% to 100% confluence 24 hours after plating, and confluent cells were then grown for an additional 4 or 5 days until growth was density arrested. On day 6 after plating, cells in the plate upper half were loaded with 20 μM CM-H2DCFDA (measures ROS level) and in the plate lower half with 10 μM JC-1 (measures Δψm) for 30 minutes at 37° C. […] For the ROS and Δψm assays, a fluorescence plate reader was used to quantify ROS production (490-nm excitation, 522-nm emission), and green monomer of JC-1 (490-nm excitation, 522-nm emission) and red JC-1 aggregate (535-nm excitation, 590-nm emission), respectively. […] The WST reagent was quantified with a plate reader at 440 nm and a reference wavelength at 690 nm. Data were normalized to untreated control as 100% and were expressed as the mean±SD.

primary human RPE cells [4] = test: Mitochondrial membrane potential (JC-1) in primary human RPE cells exposed to hydroquinone; format: cell-based; conditions: HQ 125-180 uM, 3-4 hours
Procedure: as §1

primary human RPE cells [5] = test: ROS level (CM-H2DCFDA) in primary human RPE cells exposed to hydroquinone; format: cell-based; conditions: HQ 125-180 uM, 3-4 hours
Procedure: as §1

[6] = Trypan blue viability of primary mouse retinal neuron cells exposed to kainic acid; format: cell-based, CD1 mice; conditions: CD1, mouse; 500 μM kainic acid alone, 8 hours; read-out: Reduction of cell viability
Procedure: (§2) Purpose: Investigate neuroprotective properties of risuteganib in primary mouse retinal neuron cells exposed to kainic acid, a neuroexcitatory compound that activates glutamate receptors, resulting in overstimulation and cell death.
Methods: Fresh retina were collected from CD1 mice and then mechanically dissociated with sterile Pasteur pipette. Cell suspensions were then dispensed into petri dish and incubated for 6 hours. Cells were then exposed to the experimental conditions: (1) untreated control, (2) 1.0 mg/mL risuteganib, (3) 500 μM kainic acid (KA), and (4) 1.0 mg/mL risuteganib for 24 hours before 500 μM kainic acid exposure. 8 hours after kainic acid treatment, dead and live cell numbers were measured using Trypan blue exclusion assay on a hemocytometer.

[7] = Trypan blue viability of primary mouse Müller cells exposed to kainic acid; format: cell-based, CD1 mice; conditions: CD1, mouse; 500 μM kainic acid alone, 48 hours; read-out: Reduction of Muller cell viability
Excerpt: as §2, with “Müller” for “retinal neuron”, “death. Retinal Müller cells support normal functions of neurons and their dysregulation can leads to loss of homeostasis and neuronal cell death.” for “death.”
Methods: Fresh retina were collected from CD1 mice and then mechanically dissociated with sterile Pasteur pipette into small aggregates and seeded into 35 mm culture dishes. All cultures were first left unchanged for 5-6 days and then replenished every 3-4 days. When the cell growth had reached around 80% confluency, retinal aggregates and debris were removed by media washes to form a purified cell monolayer. Cells were then exposed to the experimental conditions: (1) untreated control, (2) 1.0 mg/mL risuteganib, (3) 500 μM kainic acid (KA), and (4) 1.0 mg/mL risuteganib for 24 hours before 500 μM kainic acid exposure. 48 hours after kainic acid treatment, dead and live cell numbers were measured using Trypan blue exclusion assay on a hemocytometer.

[8] = test system: human retinal Müller cells (MIO-M1); test: Reactive oxygen species level in human Müller cells (MIO-M1); format: cell-based; conditions: 1× concentration (clinical dose), 24 hours
Procedure: Purpose: To determine the effects of risuteganib and anti-VEGF drugs on reactive oxygen species (ROS) levels in cultured human retinal Müller cells (MIO-M1). Elevated ROS levels can disrupt normal cellular functions, leading to reduced cell health and possible cell death.
Methods: The immortalized human retinal Müller cell line (MIO-M1) was obtained from the Department of Cell Biology of the University College, London. Cells were cultured in Dulbecco's Modified Eagle's Medium (DMEM) and plated in 24-well plates for 24 hours before treatment with 1× concentration of 1 mg/50 μL ALG-1001, ranibizumab, bevacizumab, or aflibercept. Dosage was based on clinical dose of each compound. The experiments were repeated 3 times with 6 replicates each. After 24 hours drug treatment, ROS level was measured using the fluorescent dye 2′,7′-dichlorodihydrofluorescein diacetate. The signals were read using the Biotek Synergy HT plate reader with EX filter in 482 nm and EM filter in 520 nm. Results were normalized to untreated control as 100%. Statistical analysis was performed in GraphPad Prism software program.

[9] = test system: human retinal Müller cells (MIO-M1); test: MTT cell viability of human Müller cells (MIO-M1); format: cell-based; conditions: 1× concentration (clinical dose), 24 hours, vs untreated (FIG. 18)
Procedure: Purpose: To determine the effects of risuteganib and anti-VEGF drugs on the cell viability of cultured human retinal Müller cells (MIO-M1).
Methods: The immortalized human retinal Müller cell line (MIO-M1) was obtained from the Department of Cell Biology of the University College, London. Cells were cultured in Dulbecco's Modified Eagle's Medium (DMEM) and plated in 96-well plates for 24 hours before treatment with 0.5×, 1× or 2× concentrations of 1 mg/50 μL risuteganib, or 1× of ranibizumab, bevacizumab or aflibercept. Dosage was based on clinical dose of each compound. The experiments were repeated 3 times with 7-8 replicates each. After 24 hours of drug treatment, MTT NAD(P)H-dependent colorimetric assay was used to assess the number of viable cells present in the cultures. Absorbance ratios were normalized to untreated control as 100%. Statistical analysis was performed in GraphPad Prism software program.

[10] = test system: human retinal Müller cells (MIO-M1); test: Mitochondrial membrane potential (JC-1) in human Müller cells (MIO-M1); format: cell-based; conditions: 1× concentration (clinical dose), 24 hours, vs untreated control
Procedure: Purpose: To determine the effects of risuteganib on the mitochondrial membrane potential (ΔΨm) in cultured human retinal Müller cells (MIO-M1). Loss of ΔΨm is a marker for early cell death.
Methods: The immortalized human retinal Müller cell line (MIO-M1) was obtained from the Department of Cell Biology of the University College, London. Cells were cultured in Dulbecco's Modified Eagle's Medium (DMEM) and plated in 24-well plates for 24 hours before treatment with 1× concentration of 1 mg/50 μL risuteganib, ranibizumab, bevacizumab, or aflibercept. Dosage was based on clinical dose of each compound. The experiments were repeated 3 times with 6 replicates each. After 24 hours drug treatment, the ΔΨm was measured using the JC-1 kit, a cationic dye that fluoresces red within the mitochondria of healthy, live cells. In the stressed or apoptotic cells, the mitochondrial membrane potential collapses and the cationic dye fluoresces green. First, cells were rinsed with fresh media and then incubated with the JC-1 reagent for 15 minutes at 37 degrees C. The dyes were then removed, and phosphate buffered saline was added to each well. The Red fluorescence (live cells) was read at EX 550 nm and EM 600 nm. The Green fluorescence (apoptotic cells) was read at EX 483 nm and EM 535 nm. The changes in ΔΨm were calculated by the ratio of red to green fluorescence. […]

R - G - Cys(acid)•TFA [Test Compound 1]
Activity At Dose Tested [1]: Active | Mean % Reduction of Retinal Neovascularization In ROP Model [1]: 49 - FIG. 11%

OO [H2O2, hydrogen peroxide, reference compound]
cytotoxicity at 8 h, 100 μM [2]: 22%

R- G - Cys(acid)•Acetate [Test Compound 2]
Activity At Dose Tested [1]: Active | Mean % Reduction of Retinal Neovascularization In ROP Model [1]: 56 - FIG. 11%

Oc1ccc(O)cc1 [HQ, hydroquinone, reference compound]
Change in cell viability compared to untreated cells (primary human RPE cells [3]): −82% | Change in Δψm compared to untreated cells (primary human RPE cells [4]): −53% | Increase in ROS levels compared to untreated cells (primary human RPE cells [5]): 78%

C=C(C)[C@H]1CN[C@H](C(=O)O)[C@H]1CC(=O)O [kainic acid, reference compound]
cytotoxicity at 8 h, 500 μM [6]: 42% | cytotoxicity at 48 h, 500 μM [7]: 32%

bevacizumab [reference compound]
Change in ROS level compared to untreated control [8]: 24% | Cell viability (MTT), in words [9]: decreased cell viability

aflibercept [reference compound]
Change in ROS level compared to untreated control [8]: 29% | Cell viability (MTT), in words [9]: decreased cell viability | Mitochondrial membrane potential (ΔΨm), in words [10]: decreased ΔΨm

B1: ranibizumab (antibody, chains of the INN, looked up, V domains shown)
VH: EVQLVESGGGLVQPGGSLRLSCAASGYDFTHYGMNWVRQAPGKGLEWVGWINTYTGEPTYAADFKRRFTFSLDTSKSTAYLQMNSLRAEDTAVYYCAKYPYYYGTSHWYFDVWGQGTLVTVSS
VL: DIQLTQSPSSLSASVGDRVTITCSASQDISNYLNWYQQKPGKAPKVLIYFTSSLHSGVPSRFSGSGSGTDFTLTISSLQPEDFATYYCQQYSTVPWTFGQGTKVEIK
notes: anti-VEGF agent
Change in ROS level compared to untreated control [8]: 37% | Cell viability (MTT), in words [9]: decreased cell viability
